Columns and labels:
[1] = system: S. aureus; assay: RIND XXIX reduction solution assay, Δ fluorescence; format: cell-based, Staphylococcus aureus; details: S. aureus (gram +) about 5×10^7 cells/ml, gramicidin S 0.1 mg/ml, 37° C.
Description: (§1) Bacterial suspensions were prepared by growing the cells in BHT broth to stationary phase overnight at 37° C. P. auruginosa was grown with agitation. About 40 ml of each overnight culture was centrifuged, decanted and washed once with 0.05 molar potassium phosphate buffer or 0.05 molar N-2-hydroxy-ethylpiperazine-N'-2-ethanesulfonic acid (HEPES) buffer, pH 7.8, and resuspended in buffer.
(§2) Dispersions containing RIND compounds were prepared by dissolving the RIND compound in N,N-dimethylformamide (DMF) at 16 mg compound per ml of solvent. An aliquot (250 μl) of the resulting solution was added to 500 μl of TRITON X-100 surfactant. This mixture was then added dropwise with stirring to 25 ml of 0.05 molar HEPES buffer. A dispersion of RIND XXIX was prepared similarly except that DMF was acidified with 0.1% sulfuric acid. […]
(§3) The solutions were incubated at 37° C. for 30 minutes, and the change in fluorescence emission (Δ fluorescence) was determined as the difference between the readings taken when the solutions were first mixed and then after 30 minutes incubation. Measurements were made in a commercially available MICROFLUOR Reader (available from Dynatech Laboratories, Alexandria, Virginia, U.S.A.), modified with an excitation filter at 540 nm, an emission filter at 620 nm and a Xenon lamp.

[2] = system: S. faecalis; assay: RIND XXIX reduction solution assay, Δ fluorescence; format: cell-based, Streptococcus faecalis; details: S. faecalis (gram +) about 5×10^7 cells/ml, gramicidin S 0.1 mg/ml, 37° C.
Description: as §1, §2, §3

[3] = system: E. cloacae; assay: RIND XXIX reduction solution assay, Δ fluorescence; format: cell-based, Enterobacter cloacae; details: E. cloacae (gram -) about 5×10^7 cells/ml, gramicidin S 0.1 mg/ml, 37° C.
Description: as §1
(§4) Dispersions containing RIND compounds were prepared by dissolving the RIND compound in N,N-dimethylformamide (DMF) at 16 mg compound per ml of solvent. An aliquot (250 μl) of the resulting solution was added to 500 μl of TRITON X-100 surfactant. This mixture was then added dropwise with stirring to 25 ml of 0.05 molar HEPES buffer. A dispersion of RIND XXIX was prepared similarly except that DMF was acidified with 0.1% sulfuric acid. Compositions containing water-compatible RIND compounds were prepared as described above except the surfactant was omitted.
(§5) Each test solution contained the following: dispersion of RIND XXIX (25 μl) prepared as described above, glucose (400 μl of 10% aqueous solution), tryptose (400 μl of 10% aqueous solution), trimethyl-1,4-benzoquinone ETA (500 μl of 1.5 mg/ml methanol). Aliquots (200 μl) of the mixture were mixed with solutions of the antibiotics (50 μl). The cell suspensions (50 μl) were then added. The final concentration of gramcidin S and tyrocidin were 0.1 mg/ml and 3.3 mg/ml, respectively. The final cell concentration was about 5×10^7 cells/ml. Cell control solutions contained all reagents except antibiotics. Background controls consisted of both buffer and solution controls. […]
as §3, with “lamp. […]” for “lamp.”

[4] = system: E. coli; assay: RIND XXIX reduction solution assay, Δ fluorescence; format: cell-based, Escherichia coli; details: E. coli (gram -) about 5×10^7 cells/ml, gramicidin S 0.1 mg/ml, 37° C.
Description: as §1, §4, §5
as §3, with “lamp. […]” for “lamp.”

[5] = system: K. pneumoniae; assay: RIND XXIX reduction solution assay, Δ fluorescence; format: cell-based, Klebsiella pneumoniae; details: K. pneumoniae (gram -) about 5×10^7 cells/ml, gramicidin S 0.1 mg/ml, 37° C.
Description: as §1, §4, §5
as §3, with “lamp. […]” for “lamp.”

[6] = system: E. cloacae; assay: MTT reduction solution assay, ΔOD 540 nm; format: cell-based, Enterobacter cloacae; details: E. cloacae (-) 5×10^7, gramicidin S 0.00625 mg/ml, 37° C.
Description: (§6) These examples illustrate the differentiation of bacteria using a tetrazolium salt and phenolic dye as the reducible compounds and two cyclic polypeptide antibiotics according to the present invention. The tetrazolium salt was 3-(4,5-dimethyl-2-thiazolyl) -2,5-diphenyl-2H-tetrazolium bromide (MTT) which forms a colored formazan dye when reduced. The phenolic dye was 2,6-dichloroindophenol (DCIP) which forms a colorless species when reduced.
(§7) Solutions of the reducible compounds were prepared with the following: HEPES buffer (3 ml, 0.05 molar, pH 7.5), TRITON X-100 nonionic surfactant (1% concentration), glucose (50 μl of 10% in water), tryptose (50 μl of a 10% solution in water), MTT (25 μl of 5 mg/ml methanol) or DCIP (25 μl of 3 mg/ml methanol) and phenazine methosultate ETA (25 μl of 3 mg/ml methanol).
(§8) Test solutions were prepared from the following: reducible compound solution from above (200 μl), 50 μl of either gramicidin S solution (6 mg/ml methanol and 9 ml of buffer) or tyrocidin solution (100 mg/ml methanol and 8 ml of buffer) and 50 μl of cell suspension. […] The change in optical density (ΔOD) was determined after 30 minutes at 37° C. at 540 nm for the MTT assay and at 620 nm for the DCIP assay using a commercially available spectrophotometer.

[7] = system: P. vulgaris; assay: MTT reduction solution assay, ΔOD 540 nm; format: cell-based, Proteus vulgaris; details: P. vulgaris (-) 5×10^7, gramicidin S 0.00625 mg/ml, 37° C.
Description: as §6, §7, §8

[8] = system: various bacteria which are found in the human urinary tract; assay: Differentiation with RIND VII, overall result; format: cell-based; details: gramicidin S 10^-4 molar
Description: TERGITOL 7 anionic surfactant was used to differentiate viable bacteria according to the prior art method. Various concentrations of TERGITOL 7 surfactant were mixed with a 10% glucose solution (50 μl), 3-(4,5-dimethyl-2-thiazolyl)-2,5-diphenyl-2N-tetrazolium bromide (MTT) (25 μl at 5 mg/ml methanol) or a RIND VII dispersion (1.5 ml) and phenazine methosulfate ETA (25 μl at 3 mg/ml methanol). The volume of each test solution was brought to 3 ml with potassium phosphate buffer. A cell suspension (100 μl at about 10^8 cells/ml) was then added. The solutions were incubated at 37° C. for 15 and 30 minutes in the presence of either E. coli, a gram(-) bacterium, or S. aureus, a gram(+) bacterium. The amount of dye formed was then determined visually, and graded as follows: "O" indicates no dye formation, +/- indicates faint dye formation, 1+ indicates light dye formation, 2+ indicates moderate dye formation, 3+ indicates strong dye formation, and 4+ indicates very strong dye formation.
Gramicidin S, a cyclic polypeptide antibiotic, was similarly used with RIND VII in the differentiation of various bacteria which are found in the human urinary tract. Assays were performed as described above. The final concentration of gramicidin S in each test was 10^-4 molar. […] Dye measurements were made at 635 nm and expressed below as the change in optical density (ΔOD) which was corrected for background.

gramicidin S
Δ Fluorescence (30 Minutes) [1]: 0478 | Δ Fluorescence (30 Minutes) [2]: 0197 | Δ Fluorescence (30 Minutes) [3]: > 4000 | Δ Fluorescence (30 Minutes) [4]: > 4000 | Δ Fluorescence (30 Minutes) [5]: 3084 | ΔOD, 540 nm after 30 Minutes [6]: 0.931 | ΔOD, 540 nm after 30 Minutes [7]: 0.841 | inhibition of reduction of the RIND compound, in words [8]: selectively inhibits the reduction of the RIND compound by viable gram-positive bacteria but not gram-negative bacteria
